The source of these data is paper PMC8391236, “Effect of Pterostilbene, a Natural Derivative of Resveratrol, in the Treatment of Colorectal Cancer through Top1/Tdp1-Mediated DNA Repair Pathway” (Cancers, 2021).

The subject of one data set is HCoEpiC-. As to the kind of experiment: Proliferation of non-tumor cells (CCK-8). The data set is classed as cell-based. How it is done:
(§1) The final concentration of DMSO was less than 0.1%, and 0.1% DMSO as negative control. CPT, as Top1 inhibitor, was diluted to 0.5 μM [36, 37], and FM, as Tdp1 inhibitor was diluted to 25 μM [38]. Exponentially growing cells were seeded in 96-well plates (5 × 10^3 cells/well) for 12 h. Various drugs were added separately and incubated for 24, 48, and 72 h. Cell viability was determined by CCK-8 (Beyotime Biotechnology, Shanghai, China) assay. […]
(§2) The drug concentration required for inhibiting cell proliferation by 50% (IC50) was determined by interpolation from dose-response curves.

The next data set relates to HFL-1. The data set is described as follows: Proliferation of non-tumor cells (CCK-8). The data set is classed as cell-based. The note with it: Homo sapiens, HFL1. How it is done:
as §1, §2

The next data set deals with L02. The data set is described as follows: Proliferation of non-tumor cells (CCK-8). In kind it is cell-based. Conditions: Homo sapiens. How it is done: as §1, §2
The test system of another data set is Top1 in CL187 cells. As to the kind of experiment: Intracellular Top1 enzyme activity assay. In kind it is cell-based, Human. Conditions: CL187 cells treated 6 h. How it is done:
CL187 cells were treated with different concentrations of drugs for 6 h. The supernatant was discarded, and the cells were collected. The extracts of cytoplasm, mitochondria, and nucleus were obtained by the same method as described in Section 2.4.7. The protein concentration of each extract was detected by BCA kit. Enzyme activity reaction was carried out by using 125 ng super helical DNA (pHOT-1) and cell extract. The protein concentration of the extract was guaranteed to be the same in each group. The mixture solution of the pHOT-1 and the cell extract was added into the reaction buffer and incubated for 30 min at 37 °C. The reaction was terminated with loading buffer. The agarose gel electrophoresis was performed, and the images were collected.

The next data set has as its system CL187 cells. As to the kind of experiment: Intracellular drug distribution (LC-MS/MS). In kind it is in vitro ADME, Human. Conditions: CL187 cells incubated 6 h; nucleus, mitochondria, cytoplasm extracts. As for the experimental part:
CL187 cells were inoculated in 6-well plates, until the well was full of the cells. Then the supernatant was discarded, and the cells were washed with PBS three times. The cells were added with the different concentrations of PTE or RE and incubated for 6 h. After supernatant was discarded, the cells were washed with cold Hank’s solution for three times to terminate cell metabolism. Cell cytoplasm, nucleus, and mitochondria were extracted with the nuclear and mitochondrial extraction kit (KeyGEN BioTECH, Nanjing, China). Cells were resuspended with 1.5 mL Lysis Buffer and transferred to a 2 mL glass homogenizer for grinding (0–4 °C ice bath). The homogenate was collected and centrifuged at 800× g at 4 °C for 5 min. The nuclei were distributed in the precipitate, while the mitochondria were distributed in the supernatant. […] The protein concentration of each extract was detected by the BCA kit.
The drug contents of the extracted cell cytoplasm, nucleus, and mitochondria were determined by LC-MS/MS. […] The calibration range for the quantitation of each compound in all cellular components was 10 to 10,000 ng/mL. […]

Another data set deals with Top1 and Tdp1. As to the kind of experiment: Top1 and Tdp1 in xenograft tumor tissues (WB, qPCR). The note with it: subcutaneous CL187 xenograft. In kind it is in vivo, BABLc/nude mice. How it is done: The 20 mg of the tumor was added into 1 mL RIPA lysis, and homogenized for 3 times under low temperature condition, and centrifuged at 12,000 rpm for 10 min. Subsequently, the supernatant was collected, and the contents of Top1 and Tdp1 were determined by WB as described in Section 2.4.4. The 20 mg of tumor was added into 1 mL Trizol, and homogenized for 3 times. The expression levels of Top1 and Tdp1 were analyzed using the method described in Section 2.4.5.

Take `COc1cc(/C=C/c2ccc(O)cc2)cc(OC)c1` [PTE, 3,5-dimethoxy-4′-hydroxy-trans-stilbene]: the half-inhibitory concentration (IC50) in the data set on HCoEpiC- (24 h) turned out to be 444 µM; in the data set on HCoEpiC- (48 h), 250 µM; in the data set with HCoEpiC- (72 h), 83.4 µM; in the data set on HFL-1 (HFL-1, 24 h), 339 µM; in the data set on HFL-1 (HFL-1, 48 h) it was 315 µM; in the data set on HFL-1 (HFL-1, 72 h), 130 µM. Also, the concentration for half-maximal inhibition (IC50) in the data set with L02 (L02, 24 h) came out at 478 µM; in the data set with L02 (L02, 48 h), 248 µM; with L02 (L02, 72 h) it was 148 µM. For the same molecule, the “concentration with the same inhibitory effect on intracellular Top1 enzyme activity” value in the data set with Top1 in CL187 cells (cell extracts + SC DNA) was found to be 20 µM. Also, the “Top1 enzyme activity in mitochondria” value with Top1 in CL187 cells (CPT at 50 μM) is reported as “significantly inhibited”. Moreover, in the data set with CL187 cells, the “concentration of drug in cells (maximum)” value is reported as “more than 70.0 ng/μg”. The “mRNA expression of Top1 and Tdp1 in tumor tissues” value in the data set with Top1 and Tdp1 is reported as “inhibited”. The “protein contents of Top1 and Tdp1 in tumor tissues (WB)” value in the data set with Top1 and Tdp1 (especially high-concentration group) was “decreased significantly”.
